Experiments:
[1] = target: T1, Interleukin-1 receptor-associated kinase 4 (Homo sapiens, UniProt Q9NWZ3); assay: (§1) In vitro IRAK-1 and IRAK-4 Assay: Purified recombinant IRAK-4 protein was incubated with 250 uM synthetic peptide([…]) in 30 ul of kinase buffer including (20 mM MOPS pH7.2, 25 mM beta glycerol phosphate, 5 mM EGTA, 1 mM sodium orthovanadate, 1 mM DTT, 50 uM ATP, 20 mM MgCl2, 10 uCi gamma-33P, 0.1% BSA) for the indicated time. For purified recombinant IRAK-1 protein kinase assay, 50 uM ATP was used. A 25 ul aliquot of the reaction mixture was transferred on to p81 phosphocellulose squares (Upstate Biotechnology, Lake Placid, N.Y.). The assay squares were washed three times with 0.75% phosphoric acid and once with acetone. Enzyme activity was measured by determining the bound radioactivity by liquid scintillation counting.
T1 sequence (Q9NWZ3 whole entry): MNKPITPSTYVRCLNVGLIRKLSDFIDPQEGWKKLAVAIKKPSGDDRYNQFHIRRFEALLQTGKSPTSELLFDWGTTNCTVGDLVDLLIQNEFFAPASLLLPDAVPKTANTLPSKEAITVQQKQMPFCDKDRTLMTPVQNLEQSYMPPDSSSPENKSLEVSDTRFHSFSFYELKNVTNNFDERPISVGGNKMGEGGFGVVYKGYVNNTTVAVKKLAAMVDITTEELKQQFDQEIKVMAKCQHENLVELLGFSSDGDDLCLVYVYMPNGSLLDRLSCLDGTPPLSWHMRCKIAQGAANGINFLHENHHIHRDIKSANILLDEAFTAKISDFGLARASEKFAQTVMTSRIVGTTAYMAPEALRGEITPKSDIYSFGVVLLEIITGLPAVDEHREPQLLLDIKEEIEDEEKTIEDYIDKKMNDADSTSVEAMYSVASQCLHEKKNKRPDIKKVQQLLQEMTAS

[2] = target: Tyrosine-protein kinase SYK (Homo sapiens, UniProt P43405); assay: In vitro SYK Kinase Assay: SYK activity is measured by phosphorylation of a peptide substrate (Biotin-[…]) with [gamma-33P] ATP. The enzyme reaction was conducted at 20 uM ATP with 0.05 uCi [gamma-33P]ATP (2 uCi for 40 ul assay) and 10 uM peptide substrate at final volume of 40 ul in buffer containing 50 mM Hepes, pH 7.2, 1 mM dithiothreitol, 10 mM MgCl2, 100 uM Na3VO4, 0.1% BSA and 10% DMSO. The enzyme assay was carried out with human full length SYK in the presence or absence of ten compound concentrations. SYK and compound were pre-incubated for 10 minutes. Then, the enzymatic reaction was initiated by addition of ATP and peptide substrate. The reaction mixture was incubated at room temperature for 30 minutes. At the end of incubation, the reaction was terminated by transferring 25 ul of the reaction mixture to 100 ul of 10% streptavidin slurry containing 100 mM EDTA. The reaction product was captured on the affinity resin and sequentially washed on a filtration plate (Millipore, MABVNOB50) with 2M NaCl, 2M M NaCl in 1% phosphoric acid and water to remove free radio nucleotide. Then the incorporation of 33P into peptide substrate was quantified on a microplate scintillation counter.
[3] = target: Interleukin-1 receptor-associated kinase 1 (Homo sapiens, UniProt P51617); assay: as §1
Interleukin-1 receptor-associated kinase 1, sequence (P51617 whole entry): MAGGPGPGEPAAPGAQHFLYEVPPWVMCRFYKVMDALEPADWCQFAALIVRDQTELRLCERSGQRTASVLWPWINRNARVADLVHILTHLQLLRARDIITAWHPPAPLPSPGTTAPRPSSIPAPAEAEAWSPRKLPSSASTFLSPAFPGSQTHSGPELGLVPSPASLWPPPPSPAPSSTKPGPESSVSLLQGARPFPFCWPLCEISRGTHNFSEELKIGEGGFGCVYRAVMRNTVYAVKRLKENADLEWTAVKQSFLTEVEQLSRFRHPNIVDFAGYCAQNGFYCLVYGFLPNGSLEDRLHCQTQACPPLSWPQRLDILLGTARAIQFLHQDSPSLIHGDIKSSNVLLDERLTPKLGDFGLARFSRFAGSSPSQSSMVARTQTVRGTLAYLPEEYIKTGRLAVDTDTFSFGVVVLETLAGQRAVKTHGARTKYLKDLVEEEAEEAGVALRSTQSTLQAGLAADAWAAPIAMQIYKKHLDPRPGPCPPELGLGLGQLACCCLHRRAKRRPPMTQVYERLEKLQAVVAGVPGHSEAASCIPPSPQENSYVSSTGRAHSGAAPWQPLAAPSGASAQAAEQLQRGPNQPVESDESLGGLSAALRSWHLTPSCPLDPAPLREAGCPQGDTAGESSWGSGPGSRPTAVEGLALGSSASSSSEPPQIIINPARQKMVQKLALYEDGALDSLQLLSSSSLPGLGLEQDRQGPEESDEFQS

IC50 [1] [µM] | IC50 [2] [µM] | IC50 [3] [µM] | SMILES
0.018 | 0.622 | – | COc1cc2ncccc2cc1NC(=O)c1csc2cncnc12
0.01 | – | 0.2 | COc1cc2nc(NCCO)ccc2cc1NC(=O)c1csc2cncnc12
0.007 | – | 0.07 | O=C(Nc1cc2cccnc2cc1O[C@H]1CC[C@@H](O)CC1)c1csc2cncnc12

Further lines, the molecule ahead of its results:

SMILES | IC50 [1] [µM] | IC50 [2] [µM] | IC50 [3] [µM]
CC(O)C1CCN(c2ccc(Cl)cc2NC(=O)c2cnn3cccnc23)CC1 (stereo not given) | 0.005 | – | 0.97
O=C(Nc1cc2cccnc2cc1OC1CCC(O)CC1)c1csc2cncnc12 (stereo not given) | 0.024 | – | 0.123
O=C(Nc1cc2cccnc2cc1N1CCCCC1)c1csc2cncnc12 | 0.012 | – | –
O=C(Nc1cc(Cl)ccc1OC1CCC(O)CC1)c1cnn2cc(O)cnc12 (stereo not given) | 0.023 | – | 0.163
COc1cc2ncccc2cc1NC(=O)c1cnn2cc(O)cnc12 | 0.009 | – | 0.2
